Experiments:
sugar beet = assay: Test C preemergence/postemergence greenhouse plant response rating 0 to 100; type: in vivo, Beta vulgaris; details: POSTEMERGENCE; for Plant response rating, Sugar beet: 0 to 100 scale
Outline: (§1)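 Compounds in non-phytotoxic solvent applied preemergence to sandy loam one day after planting, postemergence at the 1–4 leaf stage, or to ~2.5 cm floodwater over silt loam.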

velvetleaf = assay: Test B preemergence/postemergence greenhouse plant response rating 0 to 10; type: in vivo, Abutilon theophrasti; details: 0 to 10 scale
Outline: (§2)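 Postemergence treatment of plants two to eighteen cm tall ran alongside preemergence treatment of planted seed, each using compound in a non-phytotoxic solvent.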

wild buckwheat = assay: Test C preemergence/postemergence greenhouse plant response rating 0 to 100; type: in vivo, Polygonum convolvulus; details: POSTEMERGENCE; for Plant response rating, Wild buckwheat: 0 to 100 scale
Outline: as §1

soybean [1] = assay: as above; type: in vivo, Glycine max; details: POSTEMERGENCE; for Plant response rating, Soybean: 0 to 100 scale
Outline: as §1

soybean [2] = assay: Test B preemergence/postemergence greenhouse plant response rating 0 to 10; type: in vivo, Glycine max; details: 0 to 10 scale
Outline: as §2

barley [3] = assay: as above; type: in vivo, Hordeum vulgare; details: 0 to 10 scale
Outline: as §2

lambsquarters [4] = assay: as above; type: in vivo, Chenopodium album; details: 0 to 10 scale
Outline: as §2

blackgrass = assay: as above; type: in vivo, Alopecurus myosuroides; details: 0 to 10 scale
Outline: as §2

chickweed = assay: Test C preemergence/postemergence greenhouse plant response rating 0 to 100; type: in vivo, Stellaria media; details: POSTEMERGENCE; for Plant response rating, Chickweed: 0 to 100 scale
Outline: as §1

crabgrass = assay: Test B preemergence/postemergence greenhouse plant response rating 0 to 10; type: in vivo, Digitaria spp.; details: 0 to 10 scale
Outline: as §2

purple nutsedge = assay: as above; type: in vivo, Cyperus rotundus; details: 0 to 10 scale
Outline: as §2

barley [5] = assay: Test C preemergence/postemergence greenhouse plant response rating 0 to 100; type: in vivo, Hordeum vulgare; details: POSTEMERGENCE; for Plant response rating Barley Igri: 0 to 100 scale
Outline: as §1

rape = assay: Test B preemergence/postemergence greenhouse plant response rating 0 to 10; type: in vivo, Brassica napus; details: 0 to 10 scale
Outline: as §2

pigweed = assay: Test C preemergence/postemergence greenhouse plant response rating 0 to 100; type: in vivo, Amaranthusretroflexus; details: POSTEMERGENCE; for Plant response rating Pigweed: 0 to 100 scale
Outline: as §1

ryegrass = assay: as above; type: in vivo, Lolium multiflorum; details: POSTEMERGENCE; for Plant response rating Ryegrass: 0 to 100 scale
Outline: as §1

giant foxtail = assay: Test B preemergence/postemergence greenhouse plant response rating 0 to 10; type: in vivo, Setaria faberii; details: 0 to 10 scale
Outline: as §2

cheatgrass = assay: as above; type: in vivo, Bromus secalinus; details: 0 to 10 scale
Outline: as §2

lambsquarters [6] = assay: Test C preemergence/postemergence greenhouse plant response rating 0 to 100; type: in vivo, Chenopodium album; details: POSTEMERGENCE; for Plant response rating Lambsquarters: 0 to 100 scale
Outline: as §1

C=C(Cl)COc1cc(-c2nn3c(c2Cl)CCCC3)c(F)cc1Cl [Compound 40]
8: Plant response rating, Velvetleaf (velvetleaf; Rate 200 g/ha, PREEMERGENCE) | Plant response rating, Soybean (soybean [2]; Rate 200 g/ha, POSTEMERGENCE) | Plant response rating, Crabgrass (crabgrass; Rate 200 g/ha, PREEMERGENCE) | Plant response rating, Rape (rape; PREEMERGENCE, Rate 50 g/ha) | Plant response rating, Rape (rape; Rate 200 g/ha, POSTEMERGENCE)
5: Plant response rating, Soybean (soybean [2]; POSTEMERGENCE, Rate 50 g/ha) | Plant response rating, Barley (barley [3]; POSTEMERGENCE, Rate 200 g/ha) | Plant response rating, Crabgrass (crabgrass; POSTEMERGENCE, Rate 200 g/ha) | Plant response rating, Giant foxtail (giant foxtail; POSTEMERGENCE, Rate 50 g/ha)
2: Plant response rating, Velvetleaf (velvetleaf; POSTEMERGENCE, Rate 50 g/ha) | Plant response rating, Velvetleaf (velvetleaf; PREEMERGENCE, Rate 50 g/ha) | Plant response rating, Soybean (soybean [2]; Rate 200 g/ha, PREEMERGENCE) | Plant response rating, Blackgrass (blackgrass; POSTEMERGENCE, Rate 50 g/ha) | Plant response rating, Blackgrass (blackgrass; Rate 200 g/ha, PREEMERGENCE) | Plant response rating, Nutsedge (purple nutsedge; POSTEMERGENCE, Rate 50 g/ha)
70: Plant response rating (0 to 100), Lambsquarters (lambsquarters [6]; Rate 16 g/ha) | Plant response rating (0 to 100), Lambsquarters (lambsquarters [6]; Rate 31 g/ha)
0: Plant response rating, Soybean (soybean [2]; PREEMERGENCE, Rate 50 g/ha) | Plant response rating, Barley (barley [3]; PREEMERGENCE, Rate 50 g/ha) | Plant response rating, Crabgrass (crabgrass; PREEMERGENCE, Rate 50 g/ha) | Plant response rating, Nutsedge (purple nutsedge; PREEMERGENCE, Rate 50 g/ha) | Plant response rating, Nutsedge (purple nutsedge; Rate 200 g/ha, PREEMERGENCE) | Plant response rating, Cheatgrass (cheatgrass; PREEMERGENCE, Rate 50 g/ha)
95: Plant response rating (0 to 100), Pigweed (pigweed; Rate 31 g/ha)
30: Plant response rating (0 to 100), Chickweed (chickweed; Rate 16 g/ha) | Plant response rating (0 to 100), Chickweed (chickweed; Rate 31 g/ha) | Plant response rating Barley Igri (barley [5]; 62 g/ha) | Plant response rating (0 to 100), Barley Igri (barley [5]; Rate 31 g/ha) | Plant response rating Ryegrass (ryegrass; 62 g/ha)
90: Plant response rating, Chickweed (chickweed; 125 g/ha) | Plant response rating (0 to 100), Pigweed (pigweed; Rate 16 g/ha)
50: Plant response rating (0 to 100), Wild buckwheat (wild buckwheat; Rate 16 g/ha) | Plant response rating (0 to 100), Wild buckwheat (wild buckwheat; Rate 31 g/ha) | Plant response rating, Soybean (soybean [1]; 62 g/ha)
3: Plant response rating, Blackgrass (blackgrass; POSTEMERGENCE, Rate 200 g/ha)
40: Plant response rating (0 to 100), Soybean (soybean [1]; Rate 16 g/ha) | Plant response rating (0 to 100), Soybean (soybean [1]; Rate 31 g/ha) | Plant response rating Barley Igri (barley [5]; 125 g/ha) | Plant response rating Ryegrass (ryegrass; 125 g/ha)
4: Plant response rating, Barley (barley [3]; POSTEMERGENCE, Rate 50 g/ha) | Plant response rating, Crabgrass (crabgrass; POSTEMERGENCE, Rate 50 g/ha) | Plant response rating, Nutsedge (purple nutsedge; Rate 200 g/ha, POSTEMERGENCE) | Plant response rating, Rape (rape; POSTEMERGENCE, Rate 50 g/ha) | Plant response rating, Cheatgrass (cheatgrass; POSTEMERGENCE, Rate 50 g/ha) | Plant response rating, Cheatgrass (cheatgrass; POSTEMERGENCE, Rate 200 g/ha) | Plant response rating, Cheatgrass (cheatgrass; Rate 200 g/ha, PREEMERGENCE)
9: Plant response rating, Lambsquarter (lambsquarters [4]; POSTEMERGENCE, Rate 50 g/ha) | Plant response rating, Giant foxtail (giant foxtail; PREEMERGENCE, Rate 50 g/ha) | Plant response rating, Giant foxtail (giant foxtail; Rate 200 g/ha, PREEMERGENCE)
100: Plant response rating, Sugar beet (sugar beet; 62 g/ha) | Plant response rating, Sugar beet (sugar beet; 125 g/ha) | Plant response rating (0 to 100), Sugar beet (sugar beet; Rate 16 g/ha) | Plant response rating (0 to 100), Sugar beet (sugar beet; Rate 31 g/ha) | Plant response rating, Wild buckwheat (wild buckwheat; 62 g/ha) | Plant response rating, Wild buckwheat (wild buckwheat; 125 g/ha) | Plant response rating Pigweed (pigweed; 62 g/ha) | Plant response rating Pigweed (pigweed; 125 g/ha) | Plant response rating Lambsquarters (lambsquarters [6]; 125 g/ha)
10: Plant response rating, Velvetleaf (velvetleaf; Rate 200 g/ha, POSTEMERGENCE) | Plant response rating, Lambsquarter (lambsquarters [4]; PREEMERGENCE, Rate 50 g/ha) | Plant response rating, Lambsquarter (lambsquarters [4]; Rate 200 g/ha, POSTEMERGENCE) | Plant response rating, Lambsquarter (lambsquarters [4]; Rate 200 g/ha, PREEMERGENCE) | Plant response rating (0 to 100), Ryegrass (ryegrass; Rate 16 g/ha)
1: Plant response rating, Barley (barley [3]; Rate 200 g/ha, PREEMERGENCE)
80: Plant response rating Lambsquarters (lambsquarters [6]; 62 g/ha)
6: Plant response rating, Rape (rape; Rate 200 g/ha, PREEMERGENCE) | Plant response rating, Giant foxtail (giant foxtail; Rate 200 g/ha, POSTEMERGENCE)
60: Plant response rating, Soybean (soybean [1]; 125 g/ha) | Plant response rating, Chickweed (chickweed; 62 g/ha)
20: Plant response rating (0 to 100), Barley Igri (barley [5]; Rate 16 g/ha) | Plant response rating (0 to 100), Ryegrass (ryegrass; Rate 31 g/ha)

— patent publication US6358885B1, “Substituted phenylheterocyclic herbicides” (Mississippi State University, priority 1992, dated 2002)
